Article PMC7092826 (Biochemical Pharmacology, 2008)
Values joined by “and” are separate entries in the source; they are usually repeats but may differ in a detail not shown here. Equal entries are not always repeated.

Columns and labels:
[1] = target: cathepsin L (Homo sapiens, UniProt P07711); type: biochemical
[2] = target: T1, SARS-CoV PLpro (Severe acute respiratory syndrome coronavirus, UniProt P0C6U8); type: biochemical
[3] = target: cathepsin B (Homo sapiens, UniProt P07858); type: biochemical
[4] = target: T1, SARS-CoV PLpro; assay: biochemical; type: biochemical; settings: for Ki: Kis
[5] = target: T1, SARS-CoV PLpro; assay: biochemical; type: biochemical; settings: for remaining activity at 200 µM: read-out: residual activity of PLpro
[6] = target: T1, SARS-CoV PLpro; type: biochemical; remark: listed apart in the source
[7] = target: T2, papain (Carica papaya, UniProt P00784); type: biochemical
T2 sequence (P00784 134-345): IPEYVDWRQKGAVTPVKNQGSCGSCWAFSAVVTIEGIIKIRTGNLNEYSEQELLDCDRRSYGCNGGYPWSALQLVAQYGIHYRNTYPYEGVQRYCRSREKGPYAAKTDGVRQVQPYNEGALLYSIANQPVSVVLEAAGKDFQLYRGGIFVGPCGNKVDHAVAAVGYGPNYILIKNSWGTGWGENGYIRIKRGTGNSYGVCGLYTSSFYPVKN

[8] = target: T3, cathepsin K (Homo sapiens, UniProt P43235); type: biochemical
T3 sequence (P43235 115-329): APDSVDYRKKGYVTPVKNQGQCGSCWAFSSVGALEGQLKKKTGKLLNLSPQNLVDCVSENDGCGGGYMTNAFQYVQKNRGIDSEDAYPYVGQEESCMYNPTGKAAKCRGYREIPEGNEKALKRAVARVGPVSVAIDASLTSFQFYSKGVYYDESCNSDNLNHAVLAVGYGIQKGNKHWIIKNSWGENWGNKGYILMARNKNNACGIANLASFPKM

[9] = target: cathepsin S (Homo sapiens, UniProt P25774); type: biochemical
Chain of cathepsin S (P25774 115-331): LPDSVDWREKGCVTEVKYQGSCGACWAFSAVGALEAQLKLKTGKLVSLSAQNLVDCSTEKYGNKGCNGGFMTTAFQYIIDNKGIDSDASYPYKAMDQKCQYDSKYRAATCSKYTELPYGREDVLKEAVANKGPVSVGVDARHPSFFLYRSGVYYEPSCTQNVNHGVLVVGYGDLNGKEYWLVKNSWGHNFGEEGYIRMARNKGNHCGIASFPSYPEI

[10] = target: T1, SARS-CoV PLpro; assay: biochemical; type: biochemical
[11] = target: SARS-CoV 3CLpro (Severe acute respiratory syndrome coronavirus, UniProt P0C6U8); assay: biochemical; settings: read-out: residual activity of 3CLpro

Chain of cathepsin L (P07711 114-333, species assumed): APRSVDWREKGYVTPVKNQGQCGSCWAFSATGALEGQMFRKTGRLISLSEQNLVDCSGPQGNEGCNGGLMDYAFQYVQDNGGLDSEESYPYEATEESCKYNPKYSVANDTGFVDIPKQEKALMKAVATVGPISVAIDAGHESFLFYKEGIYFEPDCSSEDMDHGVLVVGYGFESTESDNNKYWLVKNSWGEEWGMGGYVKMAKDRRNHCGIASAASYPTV

Structure (SMILES)	inhibition of cathepsin L [1]	inhibition of the deubiquitinating activity of PLpro [2]	inhibition of cathepsin B [3]	inhibition pattern [4]	kcat [4] [s⁻¹]	Ki [4]	binding mechanism [5]	kmax [5]	kmax of inactivation [5] [ms^−1]	remaining activity at 200 µM [5] [%]	enzymatic activity after gel filtration of the inhibited enzyme (reversibility) [6]	inhibition of papain [7]	inhibition of cathepsin K [8]	inhibition of cathepsin S [9]	IC50 [10] [µM]	remaining activity at 200 µM [11] [%]	inhibitory activity against PLpro [10]
Sc1ncnc2nc[nH]c12 [compound 1, 6-Mercaptopurine]	not effective inhibitors	effectively inhibited	not effective inhibitors	competitive	0.13 ± 0.01	19 µM and 19.2 µM	slow-binding inhibitors	1.2 ± 0.1 10^−4 s^−1	0.12	< 5	restored	not effective inhibitors	not effective inhibitors	not effective inhibitors	21.6 ± 1.8	–	–
Nc1nc2nc[nH]c2c(=S)[nH]1 [compound 2, 6-Thioguanine]	not effective inhibitors	effectively inhibited	not effective inhibitors	competitive	0.14 ± 0.02	13 ± 2.8 µM	slow-binding inhibitors	9.2 ± 0.9 10^−4 s^−1	0.92	< 5	restored	not effective inhibitors	not effective inhibitors	not effective inhibitors	5 ± 1.7	25	–
O=c1[nH]cnc2nc[nH]c12 [compound 3, Hypoxanthine]	–	–	–	–	–	–	–	–	–	–	–	–	–	–	–	–	devoid of inhibitory activity
CSc1ncnc2nc[nH]c12 [compound 4, 6-Methyl-mercaptopurine]	–	–	–	–	–	–	–	–	–	–	–	–	–	–	–	–	devoid of inhibitory activity
CCN1C(=O)C=CC1=O [compound 6, N-ethylmaleimide]	–	–	–	–	–	–	–	–	–	–	–	–	–	–	4.4 ± 1	–	–
